Data from PMC9954146, “Anti-Leukaemic Activity of Rilpivirine Is Mediated by Aurora A Kinase Inhibition” (Cancers, 2023).

Legend:
Experiment in all cases: Kinase panel
Type in all cases: biochemical
Ret(h) = target: T1, Ret(h) (Homo sapiens, UniProt P07949); settings: read-out: % Residual Activity
T1 construct: purchased Eurofins (KinaseProfiler)
Procedure, shortened: (§1)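 Steps: profile rilpivirine against a broad kinase panel; determine IC50 by radioactive assay using ATP at the kinase-specific Km; convert IC50 to Ki by the Cheng–Prusoff relationship.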

FGFR1(h) = target: T2, FGFR1(h) (Homo sapiens, UniProt P11362); settings: read-out: % Residual Activity
T2 construct: purchased Eurofins (KinaseProfiler)
Procedure, shortened: as §1

Met(Y1248D)(h) = target: T3, Met(Y1248D)(h) (Homo sapiens, UniProt P08581, Y1230D); settings: read-out: % Residual Activity
T3 construct: purchased Eurofins (KinaseProfiler)
Procedure, shortened: as §1

Rsk4(h) = target: T4, Rsk4(h) (Homo sapiens, UniProt Q9UK32); settings: read-out: % Residual Activity
T4 construct: purchased Eurofins (KinaseProfiler)
Procedure, shortened: as §1

CDK3/cyclinE(h) = target: T5, CDK3/cyclinE(h) (Homo sapiens, UniProt Q00526); settings: read-out: % Residual Activity
T5 construct: purchased Eurofins (KinaseProfiler)
T5 sequence (Q00526 whole entry): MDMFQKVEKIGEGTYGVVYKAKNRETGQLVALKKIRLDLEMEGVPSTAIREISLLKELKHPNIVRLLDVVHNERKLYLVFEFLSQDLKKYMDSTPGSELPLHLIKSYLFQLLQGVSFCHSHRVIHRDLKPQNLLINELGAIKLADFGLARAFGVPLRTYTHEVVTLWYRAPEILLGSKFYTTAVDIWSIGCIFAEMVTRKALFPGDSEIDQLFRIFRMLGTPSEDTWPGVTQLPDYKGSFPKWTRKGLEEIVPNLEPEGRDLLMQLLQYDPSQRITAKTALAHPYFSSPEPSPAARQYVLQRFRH
T5 sequence (P24864 whole entry partner): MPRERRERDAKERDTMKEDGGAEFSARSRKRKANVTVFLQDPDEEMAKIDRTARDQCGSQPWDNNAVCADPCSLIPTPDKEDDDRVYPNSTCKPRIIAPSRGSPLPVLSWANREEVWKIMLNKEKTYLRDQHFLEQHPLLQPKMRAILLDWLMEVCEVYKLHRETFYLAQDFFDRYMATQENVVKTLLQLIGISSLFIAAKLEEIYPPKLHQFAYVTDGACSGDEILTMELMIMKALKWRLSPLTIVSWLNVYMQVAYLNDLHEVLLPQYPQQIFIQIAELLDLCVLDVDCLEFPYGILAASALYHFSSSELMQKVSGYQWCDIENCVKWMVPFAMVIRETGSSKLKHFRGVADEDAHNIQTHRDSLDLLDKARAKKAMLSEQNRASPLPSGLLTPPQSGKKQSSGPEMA
Procedure, shortened: as §1

PKCζ(h) = target: T6, PKCζ(h) (Homo sapiens, UniProt Q05513); settings: read-out: % Residual Activity
T6 construct: purchased Eurofins (KinaseProfiler)
T6 sequence (Q05513 whole entry): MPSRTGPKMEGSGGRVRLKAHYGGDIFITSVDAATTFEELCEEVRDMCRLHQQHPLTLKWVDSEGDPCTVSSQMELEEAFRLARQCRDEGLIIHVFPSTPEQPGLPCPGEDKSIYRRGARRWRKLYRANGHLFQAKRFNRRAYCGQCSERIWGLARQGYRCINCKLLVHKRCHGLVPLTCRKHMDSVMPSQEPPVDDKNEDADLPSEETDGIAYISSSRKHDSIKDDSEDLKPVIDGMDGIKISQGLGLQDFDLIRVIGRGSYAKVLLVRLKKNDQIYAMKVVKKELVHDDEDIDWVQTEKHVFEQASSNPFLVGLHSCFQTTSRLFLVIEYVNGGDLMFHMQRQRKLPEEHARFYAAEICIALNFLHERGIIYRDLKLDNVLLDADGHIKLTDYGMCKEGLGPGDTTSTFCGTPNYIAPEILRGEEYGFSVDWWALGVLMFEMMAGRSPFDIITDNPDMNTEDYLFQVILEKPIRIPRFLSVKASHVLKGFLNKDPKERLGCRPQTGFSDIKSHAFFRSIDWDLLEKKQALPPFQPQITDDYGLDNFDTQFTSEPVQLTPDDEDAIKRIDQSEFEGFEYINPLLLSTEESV
Procedure, shortened: as §1

PrKX(h) = target: T7, PrKX(h) (Homo sapiens, UniProt P51817); settings: read-out: % Residual Activity
T7 construct: purchased Eurofins (KinaseProfiler)
Procedure, shortened: as §1

VRK1(h) = target: T8, VRK1(h) (Homo sapiens, UniProt Q99986); settings: read-out: % Residual Activity
T8 construct: purchased Eurofins (KinaseProfiler)
T8 sequence (Q99986 whole entry): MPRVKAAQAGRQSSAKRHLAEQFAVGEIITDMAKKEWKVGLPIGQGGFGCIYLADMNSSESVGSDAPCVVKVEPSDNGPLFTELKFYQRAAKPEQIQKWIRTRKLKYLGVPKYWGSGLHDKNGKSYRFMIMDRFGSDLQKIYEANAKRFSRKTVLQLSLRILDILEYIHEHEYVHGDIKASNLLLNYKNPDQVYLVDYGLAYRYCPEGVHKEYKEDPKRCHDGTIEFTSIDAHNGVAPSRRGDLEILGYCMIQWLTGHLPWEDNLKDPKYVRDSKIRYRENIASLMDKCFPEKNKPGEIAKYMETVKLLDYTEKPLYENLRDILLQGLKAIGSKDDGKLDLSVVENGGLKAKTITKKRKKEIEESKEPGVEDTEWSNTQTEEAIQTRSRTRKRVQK
Procedure, shortened: as §1

LATS1(h) = target: T9, LATS1(h) (Homo sapiens, UniProt O95835); settings: read-out: % Residual Activity
T9 construct: purchased Eurofins (KinaseProfiler)
Procedure, shortened: as §1

SNRK(h) = target: T10, SNRK(h) (Homo sapiens, UniProt Q9NRH2); settings: read-out: % Residual Activity
T10 construct: purchased Eurofins (KinaseProfiler)
Procedure, shortened: as §1

EGFR(T790M,L858R)(h) = target: T11, EGFR(T790M,L858R)(h) (Homo sapiens, UniProt P00533, L858R/T790M); settings: read-out: % Residual Activity
T11 construct: purchased Eurofins (KinaseProfiler)
Procedure, shortened: as §1

GRK6(h) = target: T12, GRK6(h) (Homo sapiens, UniProt P43250); settings: read-out: % Residual Activity
T12 construct: purchased Eurofins (KinaseProfiler)
Procedure, shortened: as §1

DRAK1(h) = target: T13, DRAK1(h) (Homo sapiens, UniProt Q9UEE5); settings: read-out: % Residual Activity
T13 construct: purchased Eurofins (KinaseProfiler)
Procedure, shortened: as §1

ZAK(h) = target: T14, ZAK(h) (Homo sapiens, UniProt Q9NYL2); settings: read-out: % Residual Activity
T14 construct: purchased Eurofins (KinaseProfiler)
Procedure, shortened: as §1

LOK(h) = target: T15, LOK(h) (Homo sapiens, UniProt O94804); settings: read-out: % Residual Activity
T15 construct: purchased Eurofins (KinaseProfiler)
Procedure, shortened: as §1

Ret (V804L)(h) = target: T16, Ret (V804L)(h) (Homo sapiens, UniProt P07949, V804L); settings: read-out: % Residual Activity
T16 construct: purchased Eurofins (KinaseProfiler)
Procedure, shortened: as §1

ACK1(h) = target: T17, ACK1(h) (Homo sapiens, UniProt Q07912); settings: read-out: % Residual Activity
T17 construct: purchased Eurofins (KinaseProfiler)
Procedure, shortened: as §1

IRE1(h) = target: T18, IRE1(h) (Homo sapiens, UniProt O75460); settings: read-out: % Residual Activity
T18 construct: purchased Eurofins (KinaseProfiler)
Procedure, shortened: as §1

MAPK1(h) = target: T19, MAPK1(h) (Homo sapiens, UniProt P27361); settings: read-out: % Residual Activity
T19 construct: purchased Eurofins (KinaseProfiler)
T19 sequence (P27361 whole entry): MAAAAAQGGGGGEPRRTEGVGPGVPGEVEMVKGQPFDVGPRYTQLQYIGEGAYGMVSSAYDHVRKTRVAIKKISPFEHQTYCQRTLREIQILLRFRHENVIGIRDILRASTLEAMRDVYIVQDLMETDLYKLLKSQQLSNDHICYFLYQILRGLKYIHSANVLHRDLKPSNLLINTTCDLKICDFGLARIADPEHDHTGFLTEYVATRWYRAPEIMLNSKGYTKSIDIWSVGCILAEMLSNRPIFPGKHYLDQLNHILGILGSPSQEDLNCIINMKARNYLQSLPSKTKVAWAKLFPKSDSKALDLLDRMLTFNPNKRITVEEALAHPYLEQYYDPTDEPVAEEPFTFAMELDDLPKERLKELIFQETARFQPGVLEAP
Procedure, shortened: as §1

PAK6(h) = target: T20, PAK6(h) (Homo sapiens, UniProt Q9NQU5); settings: read-out: % Residual Activity
T20 construct: purchased Eurofins (KinaseProfiler)
Procedure, shortened: as §1

MAPKAP-K2(h) = target: T21, MAPKAP-K2(h) (Homo sapiens, UniProt P49137); settings: read-out: % Residual Activity
T21 construct: purchased Eurofins (KinaseProfiler)
Procedure, shortened: as §1

ARK5(h) = target: T22, ARK5(h) (Homo sapiens, UniProt O60285); settings: read-out: % Residual Activity
T22 construct: purchased Eurofins (KinaseProfiler)
Procedure, shortened: as §1

Pim-1(h) = target: T23, Pim-1(h) (Homo sapiens, UniProt P11309)
T23 construct: purchased Eurofins (KinaseProfiler)
T23 sequence (P11309 whole entry): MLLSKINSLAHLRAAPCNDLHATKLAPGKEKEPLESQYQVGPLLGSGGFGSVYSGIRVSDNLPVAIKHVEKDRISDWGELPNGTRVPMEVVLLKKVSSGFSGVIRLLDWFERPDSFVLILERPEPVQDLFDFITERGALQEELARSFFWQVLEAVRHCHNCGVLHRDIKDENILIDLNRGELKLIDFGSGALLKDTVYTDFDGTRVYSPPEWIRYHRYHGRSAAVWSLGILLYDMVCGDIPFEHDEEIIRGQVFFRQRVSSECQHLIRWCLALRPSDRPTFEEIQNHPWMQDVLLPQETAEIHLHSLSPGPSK
Procedure, shortened: as §1

[1] = target: T24, PI3 Kinase (p110a/p65a)(m) (Mus musculus, UniProt P42337); settings: read-out: % Residual Activity
T24 construct: purchased Eurofins (KinaseProfiler)
Procedure, shortened: as §1

ZAP-70(h) = target: T25, ZAP-70(h) (Homo sapiens, UniProt P43403); settings: read-out: % Residual Activity
T25 construct: purchased Eurofins (KinaseProfiler)
T25 sequence (P43403 whole entry): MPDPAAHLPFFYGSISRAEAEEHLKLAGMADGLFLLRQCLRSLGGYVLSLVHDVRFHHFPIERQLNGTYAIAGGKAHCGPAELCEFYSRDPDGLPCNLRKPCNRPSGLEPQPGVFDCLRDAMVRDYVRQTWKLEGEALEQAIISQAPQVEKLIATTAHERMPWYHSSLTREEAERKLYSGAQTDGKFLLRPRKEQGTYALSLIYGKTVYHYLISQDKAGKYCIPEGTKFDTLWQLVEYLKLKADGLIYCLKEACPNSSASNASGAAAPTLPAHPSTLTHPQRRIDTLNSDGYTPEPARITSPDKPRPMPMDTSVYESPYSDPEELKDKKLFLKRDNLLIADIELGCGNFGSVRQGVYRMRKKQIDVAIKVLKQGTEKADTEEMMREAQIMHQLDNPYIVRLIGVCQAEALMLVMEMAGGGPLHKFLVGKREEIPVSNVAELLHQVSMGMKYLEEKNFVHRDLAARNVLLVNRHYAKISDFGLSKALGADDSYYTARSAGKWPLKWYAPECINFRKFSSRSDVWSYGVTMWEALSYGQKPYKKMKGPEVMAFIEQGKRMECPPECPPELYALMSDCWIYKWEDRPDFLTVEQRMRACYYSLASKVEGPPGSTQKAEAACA
Procedure, shortened: as §1

PRP4(h) = target: T26, PRP4(h) (Homo sapiens, UniProt Q13523); settings: read-out: % Residual Activity
T26 construct: purchased Eurofins (KinaseProfiler)
Procedure, shortened: as §1

FGFR2(N549H)(h) = target: T27, FGFR2(N549H)(h) (Homo sapiens, UniProt P21802, N549H); settings: read-out: % Residual Activity
T27 construct: purchased Eurofins (KinaseProfiler)
Procedure, shortened: as §1

PDGFRα(V561D)(h) = target: T28, PDGFRα(V561D)(h) (Homo sapiens, UniProt P16234, V561D); settings: read-out: % Residual Activity
T28 construct: purchased Eurofins (KinaseProfiler)
Procedure, shortened: as §1

MAP4K5(h) = target: T29, MAP4K5(h) (Homo sapiens, UniProt Q9Y4K4); settings: read-out: % Residual Activity
T29 construct: purchased Eurofins (KinaseProfiler)
Procedure, shortened: as §1

TAO3(h) = target: T30, TAO3(h) (Homo sapiens, UniProt Q9H2K8); settings: read-out: % Residual Activity
T30 construct: purchased Eurofins (KinaseProfiler)
Procedure, shortened: as §1

ICK(h) = target: T31, ICK(h) (Homo sapiens, UniProt Q9UPZ9); settings: read-out: % Residual Activity
T31 construct: purchased Eurofins (KinaseProfiler)
T31 sequence (Q9UPZ9 whole entry): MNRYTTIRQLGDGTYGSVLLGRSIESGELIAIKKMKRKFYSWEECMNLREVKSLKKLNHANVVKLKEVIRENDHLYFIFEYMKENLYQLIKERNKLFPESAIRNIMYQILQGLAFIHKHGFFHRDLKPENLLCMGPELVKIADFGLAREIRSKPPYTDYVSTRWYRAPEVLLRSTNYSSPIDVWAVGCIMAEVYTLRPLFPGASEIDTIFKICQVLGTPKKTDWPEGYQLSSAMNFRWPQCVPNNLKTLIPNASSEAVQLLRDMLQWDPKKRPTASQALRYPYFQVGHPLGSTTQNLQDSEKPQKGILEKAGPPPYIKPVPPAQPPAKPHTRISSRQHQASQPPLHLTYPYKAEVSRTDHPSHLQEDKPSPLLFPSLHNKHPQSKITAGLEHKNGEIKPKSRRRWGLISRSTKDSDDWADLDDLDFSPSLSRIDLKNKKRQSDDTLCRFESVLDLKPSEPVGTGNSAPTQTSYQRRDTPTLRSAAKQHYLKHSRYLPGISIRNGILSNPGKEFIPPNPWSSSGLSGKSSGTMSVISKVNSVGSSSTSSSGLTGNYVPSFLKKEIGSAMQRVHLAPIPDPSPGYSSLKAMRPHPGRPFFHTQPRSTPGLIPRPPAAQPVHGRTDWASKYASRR
Procedure, shortened: as §1

SBK1(h) = target: T32, SBK1(h) (Homo sapiens, UniProt Q52WX2); settings: read-out: % Residual Activity
T32 construct: purchased Eurofins (KinaseProfiler)
Procedure, shortened: as §1

TTBK2(h) = target: T33, TTBK2(h) (Homo sapiens, UniProt Q6IQ55); settings: read-out: % Residual Activity
T33 construct: purchased Eurofins (KinaseProfiler)
Procedure, shortened: as §1

PKAcβ(h) = target: T34, PKAcβ(h) (Homo sapiens, UniProt P22694); settings: read-out: % Residual Activity
T34 construct: purchased Eurofins (KinaseProfiler)
Procedure, shortened: as §1

TNIK(h) = target: T35, TNIK(h) (Homo sapiens, UniProt Q9UKE5); settings: read-out: % Residual Activity
T35 construct: purchased Eurofins (KinaseProfiler)
T35 sequence (Q9UKE5 whole entry): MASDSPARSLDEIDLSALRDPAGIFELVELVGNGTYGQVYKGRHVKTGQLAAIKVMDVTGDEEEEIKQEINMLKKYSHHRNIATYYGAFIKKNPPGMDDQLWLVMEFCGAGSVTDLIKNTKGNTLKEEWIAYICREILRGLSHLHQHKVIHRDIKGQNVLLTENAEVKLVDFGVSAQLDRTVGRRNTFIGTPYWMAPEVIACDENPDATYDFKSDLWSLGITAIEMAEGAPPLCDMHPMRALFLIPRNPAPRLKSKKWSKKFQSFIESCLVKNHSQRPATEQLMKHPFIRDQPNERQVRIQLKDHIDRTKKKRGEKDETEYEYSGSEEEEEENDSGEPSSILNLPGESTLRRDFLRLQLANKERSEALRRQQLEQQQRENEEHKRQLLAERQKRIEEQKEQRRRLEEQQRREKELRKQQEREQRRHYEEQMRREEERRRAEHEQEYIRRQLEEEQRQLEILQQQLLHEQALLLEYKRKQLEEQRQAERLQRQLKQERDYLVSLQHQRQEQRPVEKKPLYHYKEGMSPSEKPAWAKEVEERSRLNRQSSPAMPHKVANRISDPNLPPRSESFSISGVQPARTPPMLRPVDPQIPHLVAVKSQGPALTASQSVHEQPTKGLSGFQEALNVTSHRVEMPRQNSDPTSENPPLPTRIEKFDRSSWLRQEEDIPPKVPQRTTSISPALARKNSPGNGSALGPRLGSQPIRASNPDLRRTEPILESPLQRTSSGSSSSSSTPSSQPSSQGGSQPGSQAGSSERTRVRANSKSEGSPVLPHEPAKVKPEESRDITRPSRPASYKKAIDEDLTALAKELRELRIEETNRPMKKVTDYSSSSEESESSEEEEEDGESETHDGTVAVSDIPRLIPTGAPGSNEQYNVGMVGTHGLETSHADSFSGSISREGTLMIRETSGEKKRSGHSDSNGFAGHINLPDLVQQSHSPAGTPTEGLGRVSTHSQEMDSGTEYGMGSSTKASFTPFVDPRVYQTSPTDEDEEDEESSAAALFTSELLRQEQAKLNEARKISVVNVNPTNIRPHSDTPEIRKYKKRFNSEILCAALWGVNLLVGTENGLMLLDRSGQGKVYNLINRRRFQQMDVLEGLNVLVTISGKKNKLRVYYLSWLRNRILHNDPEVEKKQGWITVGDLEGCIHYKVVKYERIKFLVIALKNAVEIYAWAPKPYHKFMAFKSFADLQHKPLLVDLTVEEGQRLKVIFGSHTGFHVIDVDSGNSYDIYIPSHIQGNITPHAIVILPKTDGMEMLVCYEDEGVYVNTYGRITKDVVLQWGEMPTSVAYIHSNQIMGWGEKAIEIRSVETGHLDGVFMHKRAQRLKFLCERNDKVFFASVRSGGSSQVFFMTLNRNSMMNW
Procedure, shortened: as §1

Met(Y1248C)(h) = target: T36, Met(Y1248C)(h) (Homo sapiens, UniProt P08581, Y1230C); settings: read-out: % Residual Activity
T36 construct: purchased Eurofins (KinaseProfiler)
Procedure, shortened: as §1

EGFR(L858R)(h) = target: T37, EGFR(L858R)(h) (Homo sapiens, UniProt P00533, L858R); settings: read-out: % Residual Activity
T37 construct: purchased Eurofins (KinaseProfiler)
Procedure, shortened: as §1

`Cc1cc(/C=C/C#N)cc(C)c1Nc1ccnc(Nc2ccc(C#N)cc2)n1` [rilpivirine, (E)-4-((4-((4-(2-cyanoethenyl)-2,6-dimethylphenyl)amino)pyrimidin-2-yl)amino)benzonitrile] was tested, and the remaining activity at 1 µM (Ret(h)) was 108%, the remaining activity at 1 µM (FGFR1(h)) was 94% and the remaining activity at 1 µM (Met(Y1248D)(h)) was 100%. It also gave a remaining activity at 1 µM (Rsk4(h)) of 99%, a remaining activity at 1 µM (CDK3/cyclinE(h)) of 90% and a remaining activity at 1 µM (PKCζ(h)) of 80%. For the same molecule, the remaining activity at 1 µM (PrKX(h)) was 97%, the remaining activity at 1 µM (VRK1(h)) was 80% and the remaining activity at 1 µM (LATS1(h)) was 86%. It also gave a remaining activity at 1 µM (SNRK(h)) of 104%, a remaining activity at 1 µM (EGFR(T790M,L858R)(h)) of 88% and a remaining activity at 1 µM (GRK6(h)) of 97%. For the same molecule, the remaining activity at 1 µM (DRAK1(h)) was 76%, the remaining activity at 1 µM (ZAK(h)) was 99% and the remaining activity at 1 µM (LOK(h)) was 101%. For the same molecule, the remaining activity at 1 µM (Ret (V804L)(h)) was 91%, the remaining activity at 1 µM (ACK1(h)) was 97% and the remaining activity at 1 µM (IRE1(h)) was 100%. For the same molecule, the remaining activity at 1 µM (MAPK1(h)) was 90%, the remaining activity at 1 µM (PAK6(h)) was 117% and the remaining activity at 1 µM (MAPKAP-K2(h)) was 100%. For the same molecule, the remaining activity at 1 µM (ARK5(h)) was 82%, the remaining activity at 1 µM (Pim-1(h); 1 μM, read-out: % Residual Activity) was 22% and the inhibition at 1 µM (Pim-1(h); PIM1, 1 μM, read-out: inhibitory activity) was > 70%. It also gave a remaining activity at 1 µM [1] of 104%, a remaining activity at 1 µM (ZAP-70(h)) of 97% and a remaining activity at 1 µM (PRP4(h)) of 113%. For the same molecule, the remaining activity at 1 µM (FGFR2(N549H)(h)) was 91%, the remaining activity at 1 µM (PDGFRα(V561D)(h)) was 86% and the remaining activity at 1 µM (MAP4K5(h)) was 34%. It also gave a remaining activity at 1 µM (TAO3(h)) of 65%, a remaining activity at 1 µM (ICK(h)) of 99% and a remaining activity at 1 µM (SBK1(h)) of 100%. The remaining activity at 1 µM (TTBK2(h)) was 88%, the remaining activity at 1 µM (PKAcβ(h)) was 93% and the remaining activity at 1 µM (TNIK(h)) was 50%. For the same molecule, the remaining activity at 1 µM (Met(Y1248C)(h)) was 100% and the remaining activity at 1 µM (EGFR(L858R)(h)) was 90%.
